Experiments:
Type in all cases: in vivo, mouse
[1] = test system: C1q; assay: C1q signal intensity immunohistochemistry; conditions: 5×FAD mice
Description: Elevated expression of C1q is observed in both human AD and mouse models of AD, and further such an elevated expression is closely associated with the elimination of synapses in microglia. In addition, MHC2 expression is increased in the AD brain. Therefore, to test whether these treatments, that improved synaptic density, had any effect on these neuroinflammatory markers, C1q (Abcam, #ab182451) and MHC2 (EMD Millipore, #MABF33) levels (FIGS. 5A-5D) were examined.
C1q and MHC2 signal intensity: Using an LSM 710 with a 20× or 40× objectives, z stacks of the entire slice thickness […] (40 images from each field) were acquired. The signal intensity was measured.
C1q and MHC2 signal intensity: Using an LSM 710 with a 20× or 40× objectives, z stacks of the entire slice thickness […] (40 images from each field) were acquired. The signal intensity was measured in Imaris.

[2] = test system: aggrecan; assay: Aggrecan immunohistochemistry around PV interneurons; conditions: 5×FAD mice, visual cortex; Plx3397 50 days
Description: These observations led to examination of the effect of Plx3397 administration on neuronal integrity. […] Indeed, it was observed that Plx3397 administration increased WFA+(Wisteria floribunda agglutinin, a PNN marker) PNN signals (au, 289400000±9384029 versus 213000000±16633300 in controls) (FIG. 22A, 22F), while aggrecan (a component in PNN) signals were […] specifically around PV interneurons in Plx3397 administered 5×FAD mice (12.34±0.4791 versus 7.837±0.3549 in controls) (FIG. 22A, 22G).

[3] = test system: IBA1+ microglia; assay: IBA1+ microglia density, area and volume by immunohistochemistry
Method: Experiments were performed to reduce microglia from 10-month-old 5×FAD mice, transgenic mice that overexpress human APP and PSEN1 genes harboring 5 AD-associated mutations, prior to GENUS treatment. […] Following 20 days of administration of Plx3397 chow, untreated- and Plx3397-treated 5×FAD mice (which continued Plx3397 administration) were subjected to 30 days of daily GENUS (FIG. 1A). Following completion of these treatments, microglial density in the visual cortex was compared between 1) untreated (No Stim), 2) Plx3397 treated, 3) GENUS treated and 4) Plx3397+GENUS treated 5×FAD mice (FIG. 1B).
Whether the neuroprotective effect is broader and can be replicated in other mouse models of neurodegeneration was evaluated. The CK-p25 mice, transgenic mice that overexpress CDK5 activator p25 in excitatory neurons, were subjected to these treatments. CK-p25 mice, which was raised in doxycycline containing food, was given either normal rodent chow (containing no doxycycline) or Plx3397 chow, and the mice simultaneously underwent no sensory stimulation or GENUS (FIG. 7A). After 42 days of treatment, neuroprotective factors were evaluated. Plx3397, GENUS and Plx3397+GENUS treatments reduced microglia in the visual cortex in CK-p25 mice (ANOVA F (3,35)=40.93, P<0.0001) (FIGS. 7B-7D), consistent with the results observed in 5×FAD mice and recent findings.
(§1) Microglia: Iba1 immunoreactive cells were considered microglia. Using an LSM 710 or LSM 880 with a 10× (for Iba1+ cell counts) or 40× (for morphological analysis) objective z stacks of the entire slice thickness […] with […] step size were acquired. Imaris was used for 3D rendering of images to quantify the total volume of microglia.
To study how CSF1R-sensitive microglia impact neural activity in the context of AD, an amyloidosis mouse model, the 5×FAD mice—which is a most commonly used mouse model for AD, was subject to a diet containing CSF1R inhibitor Plx3397 for 50 days (FIG. 21A). The CSF1R inhibitor Plx3397 (600 ppm) was employed, which was previously shown to effectively reduce microglia in vivo. Control mice were age-matched 5×FAD litters that received a regular diet. Electrophysiological recordings were performed using linear probes. Post-recording, the recording site in the visual cortex was verified by histology (FIG. 21), and microglia reduction was evaluated by assessing IBA1+ cell numbers.
How does regulating gamma oscillations affect synaptic and neural circuit function in Plx3397 treated 5×FAD mice? Specifically, it was asked what gene expression patterns are after the Plx3397 treatment and how gamma entrainment impacts such a signature. To address these questions, an unbiased RNA sequencing approach was utilized. 5×FAD mice were treated, via oral delivery in mouse chow, with the Plx3397. Following 20 days of administration of Plx3397 chow, untreated- and Plx3397-treated 5×FAD mice (which continued Plx3397 administration) were subjected to 30 days of daily GENUS (FIG. 24A). Following completion of the treatments, microglial density was quantified between 1) untreated (control), 2) Plx3397, 3) GENUS and 4) Plx3397+GENUS treated 5×FAD mice (FIGS. 24A-24D). […] Also observed was a reduction in IBA1 signal in the GENUS group (84.0±6.42 & 9.17±0.85) (FIGS. 24C-24D), which is consistent with previous observation in CK-p25 mice. After the treatments, the visual cortex was dissected, and single nucleus RNA-sequencing was performed.
as §1, with “of microglia. MAC2+ cells were counted manually using Image J.” for “of microglia.”

[4] = 5×FAD mice, visual cortex, Plx3397 chow 50 days, GENUS last 30 days

FC(F)(F)c1ccc(CNc2ccc(Cc3c[nH]c4ncc(Cl)cc34)cn2)cn1 [Plx3397, Pexidartinib]
C1q levels ([1]; hippocampus, chronic Plx3397 vs control): reduced
C1q ([1]; visual cortex, Plx3397 50 days): 22040955±1586416 au
aggrecan signals around PV interneurons [2]: 12.34±0.4791
IBA1+ positive microglia ([3]; 5×FAD mice, CA1 region of the hippocampus): significant reduction
IBA1+ cells ([3]; 5×FAD mice, hippocampus, chronic Plx3397 vs control): reduced
IBA1+ positive microglia ([3]; 5×FAD mice, visual cortex, Plx3397 chow 600 ppm 20 days, then 30 days continued with or without daily GENUS, vs untreated): significant reduction
% area covered by IBA1 [3, 4]: 7.27±0.45%
IBA1+ microglia number [3, 4]: 47.18±5.44 % no treatment control
IBA1+ cells ([3]; 5×FAD mice, visual cortex, Plx3397 diet 600 ppm for 50 days): 12±1.91 cells
volume of microglia ([3]; CK-p25 mice, visual cortex, 42 days): lower volume
microglia ([3]; CK-p25 mice, visual cortex, 42 days of treatment): reduced
IBA1+ microglial cells ([3]; CK-p25 mice, visual cortex, chronic treatment 6 weeks): 44.19±2.86 % no treatment control

Source: patent US20230181905A1, “Systems, Devices, and Methods for Enhancing the Neuroprotective Effects of Non-Invasive Gamma Stimulation with Pharmacological Agents” (Massachusetts Institute of Technology, priority 2021, published 2023)
